Experimental data: ChEMBL document CHEMBL1128617, “4-Deoxy-4-aminoavermectins with potent broad spectrum antiparasitic activities” (1995)

Columns and labels:
Type in all cases: functional
[1] = test system: Trichostrongylus colubriformis; test: Antiparasitic activity against Trichostrongylus colubriformis at dose of 0.10 mg/kg in sheep anthelmintic test
Haemonchus contortus [2] = test: Antiparasitic activity against Haemonchus contortus at dose of 0.10 mg/kg in sheep anthelmintic test
[3] = test system: Oesophagostomum columbianum; test: Antiparasitic activity against Oesophagostomum columbianum at dose of 0.10 mg/kg in sheep anthelmintic test
Artemia = test: In vitro antiparasitic activity in brine shrimp assay
Cooperia oncophora [4] = test: Antiparasitic activity against Cooperia oncophora at dose of 0.10 mg/kg in sheep anthelmintic test
Trichostrongylus axei [5] = test: Antiparasitic activity against Trichostrongylus axei at dose of 0.10 mg/kg in sheep anthelmintic test
[6] = test system: Teladorsagia circumcincta; test: Antiparasitic activity against Ostertagia circumcincta at dose of 0.10 mg/kg in sheep anthelmintic test
Cooperia [7] = test: Antiparasitic activity against Cooperia […] at dose of 0.10 mg/kg in sheep anthelmintic test; conditions: dose 0.1 mg/kg
Ovis aries [8] = test: Antiparasitic activity against Ostertagia circumcincta at dose of 0.04 mg/kg in sheep anthelmintic test
Ovis aries [9] = test: Antiparasitic activity against Trichostrongylus axei at dose of 0.04 mg/kg in sheep anthelmintic test
Ovis aries [10] = test: Antiparasitic activity against Trichostrongylus colubriformis at dose of 0.04 mg/kg in sheep anthelmintic test
Ovis aries [11] = test: Antiparasitic activity against Cooperia […] at dose of 0.04 mg/kg in sheep anthelmintic test
Ovis aries [12] = test: Antiparasitic activity against Oesophagostomum columbianum at dose of 0.04 mg/kg in sheep anthelmintic test
Ovis aries [13] = test: Antiparasitic activity against Haemonchus contortus at dose of 0.04 mg/kg in sheep anthelmintic test
Ovis aries [14] = test: (§1) Antiparasitic activity against Trichostrongylus axei at dose of 0.05 mg/kg in sheep anthelmintic test
Ovis aries [15] = test: (§2) Antiparasitic activity against Trichostrongylus colubriformis at dose of 0.05 mg/kg in sheep anthelmintic test
Ovis aries [16] = test: (§3) Antiparasitic activity against Haemonchus contortus at dose of 0.05 mg/kg in sheep anthelmintic test
Ovis aries [17] = test: (§4) Antiparasitic activity against Ostertagia circumcincta at dose of 0.05 mg/kg in sheep anthelmintic test
Ovis aries [18] = test: (§5) Antiparasitic activity against Oesophagostomum columbianum at dose of 0.05 mg/kg in sheep anthelmintic test
Ovis aries [19] = test: (§6) Antiparasitic activity against Cooperia oncophora at dose of 0.05 mg/kg in sheep anthelmintic test
Ovis aries [20] = test: (§7) Antiparasitic activity against Cooperia […] at dose of 0.05 mg/kg in sheep anthelmintic test
Trichostrongylus axei [21] = test: as §1
[22] = test system: Trichostrongylus colubriformis; test: as §2
Haemonchus contortus [23] = test: as §3
[24] = test system: Teladorsagia circumcincta; test: as §4
[25] = test system: Oesophagostomum columbianum; test: as §5
Cooperia oncophora [26] = test: as §6
Cooperia [27] = test: as §7

Molecule	Reduction ([1]; dose 0.1 mg/kg)	Reduction (Haemonchus contortus [2]; dose 0.1 mg/kg)	Reduction ([3]; dose 0.1 mg/kg)	IC100 (Artemia)	Reduction (Cooperia oncophora [4]; dose 0.1 mg/kg)	Reduction (Trichostrongylus axei [5]; dose 0.1 mg/kg)	Reduction ([6]; dose 0.1 mg/kg)	Reduction (Cooperia [7])	further results
CCC(C)[C@H]1O[C@]2(C=C[C@@H]1C)C[C@@H]1C[C@@H](C/C=C(\C)[C@@H](O[C@H]3C[C@H](OC)[C@@H](O[C@H]4C[C@H](OC)[C@H](/N=C/N(C)C)[C@H](C)O4)[C@H](C)O3)[C@@H](C)/C=C/C=C3\CO[C@@H]4[C@H](O)C(C)=C[C@@H](C(=O)O1)[C@]34O)O2 (some centres undefined)	<50%	>95%	>95%	870 ng/mL	<50%	51%	>95%	76%	–
CCC(C)[C@H]1O[C@]2(C=C[C@@H]1C)C[C@@H]1C[C@@H](C/C=C(\C)[C@@H](O[C@H]3C[C@H](OC)[C@@H](O[C@H]4C[C@H](OC)[C@H](NN(C)C)[C@H](C)O4)[C@H](C)O3)[C@@H](C)/C=C/C=C3\CO[C@@H]4[C@H](O)C(C)=C[C@@H](C(=O)O1)[C@]34O)O2 (some centres undefined)	>95%	>95%	>95%	430 ng/mL	>95%	>95%	>95%	>95%	–
CCC(C)[C@H]1O[C@]2(C=C[C@@H]1C)C[C@@H]1C[C@@H](C/C=C(\C)[C@@H](O[C@H]3C[C@H](OC)[C@@H](O[C@H]4C[C@H](OC)[C@H](N(C)C)[C@H](C)O4)[C@H](C)O3)[C@@H](C)/C=C/C=C3\CO[C@@H]4[C@H](O)C(C)=C[C@@H](C(=O)O1)[C@]34O)O2 (some centres undefined)	–	–	–	1300 ng/mL	–	–	–	–	Reduction (Ovis aries [8]): >95%; Reduction (Ovis aries [9]): <50%; Reduction (Ovis aries [10]): 51%; Reduction (Ovis aries [11]): 51%; Reduction (Ovis aries [12]): >95%; Reduction (Ovis aries [13]): >95%
CCC(C)[C@H]1O[C@]2(C=C[C@@H]1C)C[C@@H]1C[C@@H](C/C=C(\C)[C@@H](O[C@H]3C[C@H](OC)[C@@H](O[C@H]4C[C@H](OC)[C@H](NC(C)C)[C@H](C)O4)[C@H](C)O3)[C@@H](C)/C=C/C=C3\CO[C@@H]4[C@H](O)C(C)=C[C@@H](C(=O)O1)[C@]34O)O2 (some centres undefined)	–	–	–	1730 ng/mL	–	–	–	–	Reduction (Ovis aries [14]): <50%; Reduction (Ovis aries [15]): 51%; Reduction (Ovis aries [16]): 76%; Reduction (Ovis aries [17]): <50%; Reduction (Ovis aries [18]): >95%; Reduction (Ovis aries [19]): 51%; Reduction (Ovis aries [20]): 51%
IVERMECTIN	–	–	–	430 ng/mL	–	–	–	–	Reduction [1]: > 95%; Reduction (Haemonchus contortus [2]): > 95%; Reduction [3]: > 95%; Reduction (Cooperia oncophora [4]): > 95%; Reduction (Trichostrongylus axei [5]): > 95%; Reduction [6]: > 95%
CCC(C)[C@H]1O[C@]2(CC[C@@H]1C)C[C@@H]1C[C@@H](C/C=C(\C)[C@@H](O[C@H]3C[C@H](OC)[C@@H](O[C@H]4C[C@H](OC)[C@H](NC(C)=O)[C@H](C)O4)[C@H](C)O3)[C@@H](C)/C=C/C=C3\CO[C@@H]4[C@H](O)C(C)=C[C@@H](C(=O)O1)[C@]34O)O2 (some centres undefined)	>95%	>95%	>95%	650 ng/mL	>95%	>95%	>95%	>95%	–
CCC(C)[C@H]1O[C@]2(C=C[C@@H]1C)C[C@@H]1C[C@@H](C/C=C(\C)[C@@H](O[C@H]3C[C@H](OC)[C@@H](O[C@H]4C[C@H](OC)[C@H](NC(=O)c5ccccc5)[C@H](C)O4)[C@H](C)O3)[C@@H](C)/C=C/C=C3\CO[C@@H]4[C@H](O)C(C)=C[C@@H](C(=O)O1)[C@]34O)O2 (some centres undefined)	–	–	–	28000 ng/mL	–	–	–	–	Reduction (Trichostrongylus axei [21]): <50%; Reduction [22]: <50%; Reduction (Haemonchus contortus [23]): 76%; Reduction [24]: 76%; Reduction [25]: >95%; Reduction (Cooperia oncophora [26]): >95%; Reduction (Cooperia [27]): >95%
